Experimental data: paper PMC4976923, “Potent Allosteric Dengue Virus NS5 Polymerase Inhibitors: Mechanism of Action and Resistance Profiling” (PLoS Pathogens, 2016)
Read-outs that look alike come from different tables or passages of the source.

Columns and labels:
[1] = target: T1, DENV4 FL NS5 (Dengue virus type 4, UniProt P09866); test: biochemical
T1 construct: 100 nM DENV FL NS5 protein was added; made in house
Protocol: (§1) DENV1-4 FL NS5 dnI assays were performed as described previously. Briefly, compounds from 0–20 or -100 μM concentrations are two-fold serially diluted into 384-well black opaque plates (Corning Costar), after which 100 nM DENV FL NS5 protein was added and the plates incubated at RT for 20 min. RNA and ATTO-CTP, ATP, GTP and UTP were then added and the plates incubated for another 120 min. […] For order-of-addition experiments, DENV4 FL NS5 was incubated for one hour at RT with RNA, ATP, and GTP or RNA, ATP, GTP and ATTO-CTP, followed by exposure to serially diluted compounds for 20 min at RT. The missing components (ATTO-CTP and UTP or UTP alone) were added and the reactions continued for 120 min after which STOP buffer was added as before. All datapoints were performed in duplicate wells. Each compound was tested at least twice.
(§2) 2 Co mpound testing with DENV dn I FAPA assays. Final dn I assa y reaction mixtures
(§3) 3 contained 100 nM DENV 5 ´UTR-L-3´UTR IVT RNA, 20 µ M ATP, 20 µM GTP, 20 µM
(§4) 4 UTP, 5 µM ATTO -CTP, and 100 nM of DENV FL NS5 protein in 15 µl in assa y buffer
(§5) 5 comprising 50 mM Tris/ HCl, pH 7.5, 10 mM KCl, 1 mM MgCl2, 0.3 mM MnCl2 (DENV2
(§6) 6 and 4) or 1 mM MnCl 2 (DENV1 and 3), 0.001% Triton- X-100 and 10 µ M cystein e [ 1] . To
(§7) 7 perform dose-respons e inhibition measurements, compounds from 0- 20 or - 100 µM
(§8) 8 concentr ations are two -fold seriall y diluted into 384-well black opaqu e plat es (Corning
(§9) 9 Costar), after which 100 nM DENV FL NS5 protein was added into resp ect ive wells. The
(§10) 10 plates wer e sealed, b riefl y shak en and centrif uged at 1500 rpm for 30 sec and incubated at RT
(§11) 11 for 15 min. Thereafter,RNA and ATTO -CTP, ATP, GTP and UTP were added to the wells to
(§12) 12 start the reactions. The pl ates wer e re-seal ed, shaken and centrifuged as before, followed b y
(§13) 13 incubation RT for 120 min.
(§14) 15 intestinal phosphatase (CIP), re- incubation at RT for 60 min and read on a Tecan Safire II
(§15) 16 microplate reader. For o r der-of-addition experiments, DENV4 FL NS5 was incubated for one
(§16) 17 hour at RT with RNA, ATP, and GTP or RNA, ATP, GTP and ATTO-CTP, followed by
(§17) 18 exposure to seriall y dilut ed compounds for 20 mi n at RT. The missing components (ATTO-
(§18) 19 CTP and UTP or UTP alone) were added and the reactions continued for 120 min after which
(§19) 20 STOP buffer was added as before. All datapoints were performed in duplicate wells. Each
21 compound was tested at l east twice. […]

[2] = target: T1, DENV4 FL NS5; test: biochemical; details: Enzyme + compound; averaged from >3 experiments; read-out: Elongation IC50
[3] = target: T2, DENV4 FL NS5 S797A (Dengue virus type 4, UniProt P09866, S3284A); assay type: biochemical; details: dnI FAPA; one experiment
T2 construct: Site-directed alanine mutations of DENV4 FL NS5 cDNA; made in house

[4] = target: T3, DENV1 FL NS5 (Dengue virus type 1, UniProt P17763); test: DENV1 FL NS5 de novo initiation FAPA assay; assay type: biochemical; details: one experiment; read-out: DENV FL NS5 de novo initiation FAPA, IC50, DENV1
T3 construct: 100 nM DENV FL NS5 protein was added; made in house
Protocol: (§20) DENV1-4 FL NS5 dnI assays were performed as described previously. Briefly, compounds from 0–20 or -100 μM concentrations are two-fold serially diluted into 384-well black opaque plates (Corning Costar), after which 100 nM DENV FL NS5 protein was added and the plates incubated at RT for 20 min. RNA and ATTO-CTP, ATP, GTP and UTP were then added and the plates incubated for another 120 min. Reactions were stopped with buffer containing 25 nM CIP, re- incubated at RT for 60 min and read on a Tecan Safire II microplate reader. For order-of-addition experiments, DENV4 FL NS5 was incubated for one hour at RT with RNA, ATP, and GTP or RNA, ATP, GTP and ATTO-CTP, followed by exposure to serially diluted compounds for 20 min at RT. The missing components (ATTO-CTP and UTP or UTP alone) were added and the reactions continued for 120 min after which STOP buffer was added as before. All datapoints were performed in duplicate wells. Each compound was tested at least twice.
as §2, §3, §4, §5, §6, §7, §8, §9, §10, §11, §12
(§21) 13 incubation RT for 120 min. Reactions were stopped by addition of 10 µl of 2.5X STOP
(§22) 14 buffer (200 mM NaCl, 25 mM MgCl2, 1.5M DEA, pH 10; Promega) with 25 nM calf
as §14, §15, §16, §17, §18, §19
(§23) 21 compound was tested at l east twice.
(§24) 23 Compound testing in DENV1-4 infected cells by high content imaging. Approximatel y 7
(§25) 24 × 10^3 A549 cells per well were s eeded into 384-well plates in Ham’s F-12K medium

[5] = test system: DENV2-NGC Ren-LUC Replicon in HuH-7; test: Stable HuH-7 DENV2-NGC renilla luciferase replicon assay; assay type: cell-based; details: Dengue virus, DENV2, Huh-7, 48 h, read-out: HuH-7 DENV Replicon, DENV2, EC50
[6] = target: T4, DENV3 FL NS5 (Dengue virus type 3, UniProt Q6YMS4); test: DENV3 FL NS5 de novo initiation FAPA assay; assay type: biochemical; details: one experiment; read-out: DENV FL NS5 de novo initiation FAPA, IC50, DENV3
T4 construct: 100 nM DENV FL NS5 protein was added; made in house
Protocol: as §20, §2, §3, §4, §5, §6, §7, §8, §9, §10, §11, §12, §21, §22, §14, §15, §16, §17, §18, §19, §23, §24, §25

[7] = target: T1, DENV4 FL NS5; assay type: biochemical; details: for mode of inhibition with respect to viral RNA substrate / mode of inhibition with respect to GTP: Lineweaver-Burk plots; for mode of inhibition with respect to viral RNA substrate: 0–500 nM RNA; for mode of inhibition with respect to GTP: 0–50 μM GTP
[8] = target: T5, DENV2 FL NS5 (Dengue virus type 2, UniProt P14340); test: DENV2 FL NS5 de novo initiation FAPA assay; assay type: biochemical; details: one experiment; read-out: DENV FL NS5 de novo initiation FAPA, IC50, DENV2
T5 construct: made in house
Protocol: as §1, §2, §3, §4, §5, §6, §7, §8, §9, §10, §11, §12, §13, §14, §15, §16, §17, §18, §19, §23, §24, §25

[9] = target: T6, DENV4 FL NS5 W803A (Dengue virus type 4, UniProt P09866, W3291A); assay type: biochemical; details: dnI FAPA; one experiment
T6 construct: Site-directed alanine mutations of DENV4 FL NS5 cDNA; made in house

[10] = in vitro; assay type: cell-based; details: human, HuH-7 (DENV2 replicon cells); 48 hr; ATP levels
Protocol: A549, BHK-21 and Huh7 cells bearing stable DENV2 sub-genomic replicon or transiently electroporated DENV2-NGC replicon or infectious virus cDNAs were seeded into 384-well microplate (3,000 cells per well). After over-night incubation at 37°C with 5% CO2, the cells were treated with 2-fold serially diluted compounds, starting from 20 or 50 μM. At 48 hr of post-incubation, renilla luciferase activities were measured with the ViviRen live-cell substrate (Promega, USA) according to the manufacturer’s protocol. CellTiter-Glo reagent (Promega, USA) was then added to determine cytotoxic effects of compounds. For the HCV replicon assay, Huh-7.5 cells harboring the HCV replicon were seeded into a 96-well microplate (20,000 cells per well). At 48 hr after compound treatment, cells were assayed for firefly luciferase activity by using a Bright-Glo luciferase assay (Promega, USA). NITD-008, a nucleoside inhibitor of DENV and HCV was added as a control.

[11] = target: T1, DENV4 FL NS5; details: Enzyme + compound 20 min, then ssRNA and nucleotides, 2 hr; read-out: DENV FL NS5 de novo initiation FAPA, IC50, DENV4; cited from earlier work
[12] = target: DENV4 RdRp domain (aa 268–900) (Dengue virus type 4, UniProt P09866); test: Thermo-denaturation assay, recombinant RdRp domain; assay type: binding; details: +50 μM compound; DMSO control 50
Protocol: (§26) Site-directed alanine mutations of DENV4 FL NS5 cDNA were performed using pET28-D4-MY01-22713 NS5FL [23] as a template, according to the manufacturer’s protocol (Stratagene, USA). Protein expressions of DENV1-4 FL NS5 and their stability analyses by thermo-fluorescence were performed as described previously. DENV de novo initiation and elongation FAPA assays were earlier described. […]
(§27) 6 Fi g .5. Ef fects of N -pocket compounds on DENV pol ymerase thermo-stability. Melting
(§28) 7 temperatur e (Tm) w as ass essed b y thermo-d enatur ation in presence of the S YPRO Oran ge
(§29) 8 dye as described in Materials and Methods. (A-F) Representative meltin g curves of DEN V4
(§30) 10 inhibitors or 5 % DMSO control. […]
(§31) 16 controls treated with DMSO.

[13] = test system: DENV4 FL NS5; test: Thermo-denaturation assay, recombinant FL NS5; assay type: binding; details: +50 μM compound; DMSO control 42.5
Protocol: as §26, §27, §28, §29, §30, §31

[14] = Enzyme + compound 20 min, then ssRNA and nucleotides, 2 hr, averaged from ≥3 experiments, read-out: DENV FL NS5 de novo initiation FAPA, IC50, DENV4
[15] = representative dose-response curve, read-out: IC50, best-fit value of representative curve (Fig 1A in S1 Text)

Nc1nc2c(ncn2[C@@H]2O[C@H](COP(=O)(O)OP(=O)(O)OP(=O)(O)O)C[C@H]2O)c(=O)[nH]1 [3'dGTP, reference compound]
IC50 [1, 14]: 0.79 ± 0.2 µM | IC50 ([1]; compound added to enzyme-dsRNA complex, read-out: de novo IC50, order of addition: [Enzyme + RNA+ ATP+GTP+ATTO-CTP] + compound): 0.71 ± 0.2 µM | IC50 ([1]; compound added to enzyme-dsRNA complex, read-out: de novo IC50, order of addition: [Enzyme + RNA+ATP+GTP] + compound): 0.74 ± 0.26 µM | IC50 ([1]; compound added to pre-formed enzyme-ssRNA complex, read-out: de novo IC50, order of addition: [Enzyme + RNA] + compound): 0.44 ± 0.02 µM | IC50 [1, 15]: 0.513 µM | IC50 [2]: 0.43 ± 0.29 µM | S797A IC50 [3]: retained the same IC50 | IC50 [4]: 0.52 µM | EC50 [5]: > 100 µM | IC50 [6]: 0.27 µM | mode of inhibition with respect to viral RNA substrate [7]: non-competitive | mode of inhibition with respect to GTP [7]: competitive | IC50 [8]: 0.62 µM | W803A IC50 [9]: retained the same IC50 | CC50 [10]: > 100 µM

COc1ccc(CC(=O)O)cc1-c1ccccc1 [Compound 3]
IC50 [1, 15]: 788 µM | IC50 [4]: 769 µM | EC50 [5]: > 100 µM | IC50 [6]: 796 µM | IC50 [11]: 733 ± 10.6 µM | IC50 [8]: 769 µM | CC50 [10]: > 100 µM

COc1ccc(CC(=O)O)cc1-c1ccc(Cl)s1 [Compound 3i]
IC50 [1, 14]: 30.7 ± 9.4 µM | IC50 [1, 15]: 30.9 µM | IC50 [4]: 46.6 µM | EC50 [5]: > 100 µM | IC50 [6]: 66.8 µM | IC50 [8]: 37.2 µM | CC50 [10]: > 100 µM

O=C(O)Cc1cc(CC(=O)O)cc(-c2ccc(Cl)s2)c1 [Compound 11]
IC50 [4]: 7.1 µM | EC50 [5]: > 100 µM | IC50 [6]: 10.7 µM | IC50 [8]: 39.7 µM | CC50 [10]: > 100 µM

O=C(O)Cc1cc(CC(=O)O)cc(-c2ccc(C#CCO)s2)c1 [Compound 15]
Protein melting temperature Tm with compound, RdRp domain [12]: 65 °C | IC50 [4]: 0.3 µM | EC50 [5]: > 100 µM | IC50 [6]: 0.46 µM | mode of inhibition with respect to viral RNA substrate [7]: uncompetitive | mode of inhibition with respect to GTP [7]: uncompetitive inhibition | mode of inhibition at high GTP concentrations ([7]; high GTP concentrations): non-competitive mode of inhibition | Protein melting temperature Tm with compound, FL NS5 [13]: 52 °C | IC50 [8]: 2.2 µM | CC50 [10]: > 100 µM

COc1cc(C)c(C(=O)NS(=O)(=O)c2ccccc2)cc1-c1ccc(C#CCO)s1 [Compound 25]
IC50 [1, 15]: 0.281 µM | IC50 [4]: 0.033 µM | EC50 [5]: 11.4 µM | IC50 [6]: 0.04 µM | IC50 [11]: 0.165 ± 0.108 µM | IC50 [8]: 0.106 µM | CC50 [10]: > 100 µM

COc1cc(OC)c(-c2ccc(C#CCO)s2)cc1C(=O)NS(=O)(=O)c1ccccc1 [Compound 26]
IC50 [1, 15]: 0.115 µM | IC50 [4]: 0.075 µM | EC50 [5]: 21 µM | IC50 [6]: 0.057 µM | IC50 [11]: 0.251 ± 0.129 µM | IC50 [8]: 0.145 µM | CC50 [10]: > 100 µM
